Blank lines part the entries; values can stand above or below the compound they belong to.
Assays:
Microsporum canis = assay: Contact fungicidal screen, Microsporum canis; assay type: cell-based; details: 0.1M NaOAc pH 4.6
Description: (§1) The organisms used in the Contact Fungicidal Screen are a dermatophyte, trychophyton mentagrophytes, frequently associated with athlete's foot; a yeast, Candida albican, causative agent of thrush and vaginitis; a phycomycete, Rhizopus oryzae, commonly known as black bread mold; an ascomycete, Aspergillus fumagatis, found in chicken droppings and causing lung infections; and another dermatophyte, Microsporum canis, which causes ringworm. These organisms are maintained as stock cultures at 4° C. on agar […] of the following composition: dextrose 2%, Neopeptone (Difco) 1%, agar 2%. Fluid medium of the same nutrient composition (without agar) was used to test the viability of the organisms after exposure to the fungicide. This medium is also known as Sabouraud's medium. Sabouraud's agar plate cultures of Aspergillus fumigatus, Microsporum canis, and a different culture of Trychophyton mentagrophytes are prepared by planting an inoculum at the center of an agar plate and incubating at 25°-30° C. for seven to ten days. The mycelial mats are removed from the surface of the agar and prepared in the same manner as the Rhizopus culture. The compounds are weighed into heat sterilized 100 ml volumetric flasks and immediately before screening dissolved in 0.1 M NaOAc pH 4.6 buffer (test solutions). The Aspergillus, Candida, Microsporum and Rhizopus species are screened in a slightly different manner. Basically, the procedure for the Contact Germicidal Efficiency Screen is utilized. After the test solutions are made up, 5 ml aliquots are pipetted into heat sterilized 25 ml glass stoppered erlenmeyer flasks. The screen is initiated when 0.5 ml of the 5×10^6 cell (spore) per ml suspension is added to the flask containing 5 ml of the test solution. […] The subculture tubes are incubated at 25°-30° C. for ten days with daily observation for mycelial growth. The earliest subculture time at which no growth is present is considered the endpoint and is recorded as the sterilization time. To insure the viability of the culture, a 0.5 ml aliquot of the 5×10^6 cells (spores) per ml suspension is transferred to 5 ml of the pH 4.6 buffer. A loopful of the inoculated buffer is then subcultured to 7 ml of fluid Sabouraud's medium and incubated at 25°-30° C. for ten days. To insure that the dilution of the test solution into the subculture medium does stop the action, a loopful of the test solution and a loopful of the inoculated buffer are transferred into the same subculture tube. This tube is also incubated at 25°-30° C. for ten days.

Aspergillus fumigatus = assay: Contact fungicidal screen, Aspergillus fumigatus; assay type: cell-based; details: 0.1M NaOAc pH 4.6
Description: as §1

Candida albican = assay: Contact fungicidal screen, Candida albican; assay type: cell-based; details: 0.1M NaOAc pH 4.6
Description: (§2) The organisms used in the Contact Fungicidal Screen are a dermatophyte, trychophyton mentagrophytes, frequently associated with athlete's foot; a yeast, Candida albican, causative agent of thrush and vaginitis; a phycomycete, Rhizopus oryzae, commonly known as black bread mold; an ascomycete, Aspergillus fumagatis, found in chicken droppings and causing lung infections; and another dermatophyte, Microsporum canis, which causes ringworm. These organisms are maintained as stock cultures at 4° C. on agar slants of the following composition: dextrose 2%, Neopeptone (Difco) 1%, agar 2%. Fluid medium of the same nutrient composition (without agar) was used to test the viability of the organisms after exposure to the fungicide. This medium is also known as Sabouraud's medium.
The Candida albican is grown in Sabouraud's liquid medium at 25°-30° C. for three days. At the end of the incubation period the cell suspension is centrifuged at 200 G and washed with sterile physiological saline (0.85% NaCl). The density of the cell suspension is determined by counting in a hemacytometer. The suspension is stored a 4° C. until it is used, at which time it is diluted with sterile physiological saline to a density of 5×10^6 cells per ml.
(§3) The compounds are weighed into heat sterilized 100 ml volumetric flasks and immediately before screening dissolved in 0.1 M NaOAc pH 4.6 buffer (test solutions).
(§4) The Aspergillus, Candida, Microsporum and Rhizopus species are screened in a slightly different manner. Basically, the procedure for the Contact Germicidal Efficiency Screen is utilized. After the test solutions are made up, 5 ml aliquots are pipetted into heat sterilized 25 ml glass stoppered erlenmeyer flasks. The screen is initiated when 0.5 ml of the 5×10^6 cell (spore) per ml suspension is added to the flask containing 5 ml of the test solution. At intervals of 0.5, 2.5, 5.0, 10.0 and 15.0 minutes, a 4 mm loopful of the inoculated test solution is subcultured into 7 mL of sterile fluid Sabouraud's medium and mixed on a vortex, the high dilution serving to stop the action of the compound. The subculture tubes are incubated at 25°-30° C. for ten days with daily observation for mycelial growth. The earliest subculture time at which no growth is present is considered the endpoint and is recorded as the sterilization time.
(§5) To insure the viability of the culture, a 0.5 ml aliquot of the 5×10^6 cells (spores) per ml suspension is transferred to 5 ml of the pH 4.6 buffer. A loopful of the inoculated buffer is then subcultured to 7 ml of fluid Sabouraud's medium and incubated at 25°-30° C. for ten days. To insure that the dilution of the test solution into the subculture medium does stop the action, a loopful of the test solution and a loopful of the inoculated buffer are transferred into the same subculture tube. This tube is also incubated at 25°-30° C. for ten days.

Rhizopus oryzae = assay: Contact fungicidal screen, Rhizopus oryzae; assay type: cell-based; details: 0.1M NaOAc pH 4.6
Description: as §2
[…]. The mycelial mat is removed from the surface of the agar using a sterile spatula. It is transferred to a heat sterilized glass tissue grinder and macerated with 25 ml of sterile physiological saline. The suspension is then filtered through sterile glass wool. The density of the sporangia spore suspension is determined by counting in a hemacytometer. The suspension is stored at 4° C. until it was used, at which time it was diluted with sterile physiological saline to a density of 5×10^6 spores per ml.
as §3, §4, §5

[1] = system: Gram-positive and Gram-negative organisms; details: cited from earlier work
pseudomonas organisms = details: cited from earlier work
[2] = animal tests; cited from earlier work
Gram-negative organisms = details: cited from earlier work
[3] = Stability of chloroamino acids in pH 4 acetate buffer at 34° C.; assay type: physicochemical; details: for half-life: read-out: Stability (t1/2) (converted)
Description: The effect of this distance on stability in aqueous medium is illustrated in the following table.

SMILES: CC(C)(CCCCC(=O)O)N(Cl)Cl [(VI), 6-Dichloroamino-6-methyl-heptanoic acid]
- Sterilization Time (Microsporum canis; 10 PPM): 10.0 min
- Sterilization Time (Microsporum canis; 100 PPM): 2.5 min
- Sterilization Time (Microsporum canis; 1000 PPM): 0.5 min
- Sterilization Time (Aspergillus fumigatus; 10 PPM): 15 min
- Sterilization Time (Aspergillus fumigatus; 100 PPM): 15 min
- Sterilization Time (Aspergillus fumigatus; 1000 PPM): 5.0 min
- Sterilization Time (Candida albican; 10 PPM): 15 min
- Sterilization Time (Candida albican; 100 PPM): 2.5 min
- Sterilization Time (Candida albican; 1000 PPM): 0.5 min
- Sterilization Time (Rhizopus oryzae; 10 PPM): 15 min
- Sterilization Time (Rhizopus oryzae; 100 PPM): 15 min
- Sterilization Time (Rhizopus oryzae; 1000 PPM): 15 min

SMILES: [H]/N=C(\N/C(=N/[H])NCCCCCCNC(=N)NC(=N)Nc1ccc(Cl)cc1)Nc1ccc(Cl)cc1 [Chlorhexidine]
- activity against Gram-positive and Gram-negative organisms [1]: generally effective against Gram-positive and Gram-negative oganisms
- activity against pseudomonas organisms (pseudomonas organisms): not effective against pseudomonas organisms

SMILES: Oc1c(Cl)cc(Cl)c(Cl)c1Cc1c(O)c(Cl)cc(Cl)c1Cl [Hexachlorophene]
- neurotoxicity [2]: caused neurotoxicity
- activity against Gram-negative organisms (Gram-negative organisms): ineffective against Gram-negative organisms

- half-life [3]: 57 days
SMILES: CC(C)(CCC(=O)O)N(Cl)Cl [Z = CH2 CH2]

SMILES: CC(C)(CC(=O)O)N(Cl)Cl [Z = CH2]
- half-life [3]: 1.21 days

- Stability (in words) [3]: violent decomposition
SMILES: CC(C)(C(=O)O)N(Cl)Cl [Z = nothing]

- half-life [3]: 300 days
SMILES: CC(C)(COC(=O)CCC(=O)O)N(Cl)Cl [drawing 17]
